Data reported in ChEMBL document CHEMBL2396640, “Exploring DOXP-reductoisomerase binding limits using phosphonated N-aryl and N-heteroarylcarboxamides as DXR inhibitors” (Bioorg Med Chem, 2013).
Activity calls are given as the source filed them. The calls are words filed in the database; no cut-off is given here.

Key:
Escherichia coli [1] = assay: Binding affinity to Escherichia coli DXR at 20 uM by STD-NMR analysis
Escherichia coli [2] = assay: Inhibition of Escherichia coli DXR using DOXP as substrate assessed as conversion of NADPH to NADP at 500 uM preincubated for 5 mins
Escherichia coli [3] = assay: Activation of Escherichia coli DXR using DOXP as substrate assessed as conversion of NADPH to NADP at 250 uM preincubated for 5 mins
Escherichia coli [4] = assay: Inhibition of Escherichia coli DXR using DOXP as substrate assessed as conversion of NADPH to NADP at 250 uM preincubated for 5 mins measured after 10 mins relative to control
Escherichia coli [5] = assay: Inhibition of Escherichia coli DXR using DOXP as substrate assessed as conversion of NADPH to NADP at 250 uM preincubated for 5 mins relative to control
Plasmodium falciparum [6] = assay: Inhibition of Plasmodium falciparum DXR using DOXP as substrate assessed as conversion of NADPH to NADP at 250 uM preincubated for 5 mins relative to control
Plasmodium falciparum [7] = assay: Activation of Plasmodium falciparum DXR using DOXP as substrate assessed as conversion of NADPH to NADP at 250 uM preincubated for 5 mins relative to control
Escherichia coli [8] = assay: Activation of Escherichia coli DXR using DOXP as substrate assessed as conversion of NADPH to NADP at 500 uM preincubated for 5 mins

| SMILES | inhibition (Escherichia coli [4]) [%] | inhibition (Escherichia coli [5]) [%] | Activity (Escherichia coli [1]) | inhibition (Escherichia coli [2]) [%] | also measured |
| --- | --- | --- | --- | --- | --- |
| O=C(CP(=O)(O)O)NCc1ccco1 | – | – | Active | 30 | – |
| O=C(CCCCP(=O)(O)O)Nc1cccc(Br)c1 | – | – | inactive | – | Activity (Escherichia coli [3]): Active |
| O=C(CCP(=O)(O)O)Nc1ccon1 | – | – | Active | 0.2 | – |
| COc1cccc(NC(=O)CP(=O)(O)O)c1 | 17.8 | 31.9 | – | – | inhibition (Plasmodium falciparum [6]): 40.8% |
| O=C(CP(=O)(O)O)Nc1cccc(O)c1 | 43.9 | 34.4 | – | – | inhibition (Plasmodium falciparum [6]): 45.2% |
| CCOP(=O)(CC(=O)Nc1cccc(OC)c1)OCC | – | 11 | – | – | Activity (Plasmodium falciparum [7]): Active |
| CCOP(=O)(CCCCC(=O)Nc1cccc(OC)c1)OCC | – | – | – | – | Activity (Escherichia coli [3]): Active |
| CCOP(=O)(CCC(=O)Nc1cccc(OC)c1)OCC | 14.1 | 23.3 | – | – | Activity (Plasmodium falciparum [7]): Active |
| CCOP(=O)(CCCC(=O)Nc1cccc(O)c1)OCC | 0.8 | – | – | – | – |
| CCOP(=O)(CC(=O)Nc1cccc(CO)c1)OCC | – | 40.4 | – | – | inhibition (Plasmodium falciparum [6]): 40.7% |
| N#Cc1cccc(NC(=O)CP(=O)(O)O)c1 | 20 | 8.2 | – | – | Activity (Plasmodium falciparum [7]): Active |
| CCOP(=O)(CCC(=O)Nc1nc(C)c(C(C)=O)s1)OCC | – | – | Active | 0.3 | – |
| CCOP(=O)(CCC(=O)Nc1ccccn1)OCC | – | – | Active | – | Activity (Escherichia coli [8]): Active |
| CCOP(=O)(CC(=O)Nc1cccc(Br)c1)OCC | 21.4 | 16.3 | – | – | Activity (Plasmodium falciparum [7]): Active |
| O=C(CP(=O)(O)O)Nc1ccon1 | – | – | Active | 12.2 | – |
| CCOP(=O)(CCC(=O)Nc1nccs1)OCC | – | – | Active | 0.1 | – |
| CC(=O)c1sc(NC(=O)CCP(=O)(O)O)nc1C | – | – | Active | 0 | – |
| O=C(CCP(=O)(O)O)NCc1ccco1 | – | – | Active | 0.3 | – |
| O=C(CP(=O)(O)O)Nc1ccccn1 | – | – | Active | – | Activity (Escherichia coli [8]): Active |
| CCOP(=O)(CCC(=O)Nc1ccon1)OCC | – | – | Active | 0 | – |

| SMILES | inhibition (Escherichia coli [4]) [%] | inhibition (Escherichia coli [5]) [%] | Activity (Escherichia coli [1]) | inhibition (Escherichia coli [2]) [%] | also measured |
| --- | --- | --- | --- | --- | --- |
| O=C(CCP(=O)(O)O)Nc1ccccn1 | – | – | Active | 0 | – |
| CCOP(=O)(CC(=O)Nc1cccc(C#N)c1)OCC | 11.9 | 21.9 | – | – | inhibition (Plasmodium falciparum [6]): 4.8% |
| N#Cc1cccc(NC(=O)CCCP(=O)(O)O)c1 | – | – | inactive | – | – |
| CCOP(=O)(CC(=O)Nc1nc(C)c(C(C)=O)s1)OCC | – | – | Active | 21.6 | – |
| CCOP(=O)(CC(=O)Nc1ccon1)OCC | – | – | Active | 11.7 | – |
| CCOP(=O)(CC(=O)NCc1ccco1)OCC | – | – | Active | 67.7 | – |
| CCOP(=O)(CC(=O)Nc1nccs1)OCC | – | – | Active | 28.9 | – |
| O=C(CCCCP(=O)(O)O)Nc1cccc(O)c1 | – | – | inactive | – | Activity (Escherichia coli [3]): Active |
| O=C(CP(=O)(O)O)Nc1nccs1 | – | – | Active | 7.4 | – |
| CCOP(=O)(CCC(=O)NCc1ccco1)OCC | – | – | Active | 0.2 | – |
| O=C(CCP(=O)(O)O)Nc1nccs1 | – | – | Active | 0.2 | – |
| CCOP(=O)(CCC(=O)Nc1cccc(O)c1)OCC | 33.5 | 23.1 | – | – | Activity (Plasmodium falciparum [7]): Active |
| CCOP(=O)(CC(=O)Nc1cccc(O)c1)OCC | 24.4 | 44.6 | – | – | inhibition (Plasmodium falciparum [6]): 12% |
| CCOP(=O)(CCCC(=O)Nc1cccc(Br)c1)OCC | – | – | – | – | Activity (Escherichia coli [3]): Active |
| CCOP(=O)(CCC(=O)Nc1cccc(CO)c1)OCC | 17.9 | 17.1 | – | – | Activity (Plasmodium falciparum [7]): Active |
| CC(=O)c1sc(NC(=O)CP(=O)(O)O)nc1C | – | – | Active | 16.6 | – |
| COc1cccc(NC(=O)CCCCP(=O)(O)O)c1 | – | – | – | – | Activity (Escherichia coli [3]): Active |
| CCOP(=O)(CCCCC(=O)Nc1cccc(O)c1)OCC | – | – | – | – | Activity (Escherichia coli [3]): Active |
| CCOP(=O)(CC(=O)Nc1ccccn1)OCC | – | – | Active | 58.5 | – |

More lines, main results first:

| inhibition (Escherichia coli [4]) [%] | inhibition (Escherichia coli [5]) [%] | SMILES | Activity (Escherichia coli [1]) | inhibition (Escherichia coli [2]) [%] | also measured |
| --- | --- | --- | --- | --- | --- |
| 26.8 | 22.3 | O=C(CP(=O)(O)O)Nc1cccc(Br)c1 | – | – | inhibition (Plasmodium falciparum [6]): 42% |
| 49.2 | 23.7 | O=C(CCP(=O)(O)O)Nc1cccc(O)c1 | – | – | inhibition (Plasmodium falciparum [6]): 1.1% |
| 0.7 | – | O=C(CCCP(=O)(O)O)Nc1cccc(O)c1 | – | – | – |
| – | 8.7 | COc1cccc(NC(=O)CCP(=O)(O)O)c1 | – | – | Activity (Plasmodium falciparum [7]): Active; Activity (Escherichia coli [3]): Active |
| 26.8 | 16 | O=C(CCP(=O)(O)O)Nc1cccc(CO)c1 | – | – | inhibition (Plasmodium falciparum [6]): 10.9% |
